Experimental data: PubChem BioAssay (NCI)
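Here, GI50 denotes the concentration required for 50% inhibition of growth. Definition used: TGI = concentration required for complete inhibition of growth.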

What was measured:
Experiment in all cases: growth of human tumour cells (NCI), 384-well format
A498 renal = system: A498 renal
A549 NSCLC = system: A549 NSCLC
ACHN renal = system: ACHN renal
BT-549 breast = system: BT-549 breast
COLO 205 colon = system: COLO 205 colon
EKVX NSCLC = system: EKVX NSCLC
HCC-2998 colon = system: HCC-2998 colon
HCT-15 colon = system: HCT-15 colon
HL-60(TB) leukemia = system: HL-60(TB) leukemia
HOP-62 NSCLC = system: HOP-62 NSCLC
HOP-92 NSCLC = system: HOP-92 NSCLC
HS 578T breast = system: HS 578T breast
HT29 colon = system: HT29 colon
IGROV1 ovarian = system: IGROV1 ovarian
K-562 leukemia = system: K-562 leukemia
KM12 colon = system: KM12 colon
LOX IMVI melanoma = system: LOX IMVI melanoma
M14 melanoma = system: M14 melanoma
MCF7 breast = system: MCF7 breast
MDA-MB-231 breast = system: MDA-MB-231 breast
MDA-MB-435 melanoma = system: MDA-MB-435 melanoma
MDA-MB-468 breast = system: MDA-MB-468 breast
MOLT-4 leukemia = system: MOLT-4 leukemia
NCI-H226 lung = system: NCI-H226 lung
NCI-H23 lung = system: NCI-H23 lung
NCI-H322M lung = system: NCI-H322M lung
NCI-H460 NSCLC = system: NCI-H460 NSCLC
NCI/ADR-RES ovarian = system: NCI/ADR-RES ovarian
OVCAR-3 ovarian = system: OVCAR-3 ovarian
OVCAR-4 ovarian = system: OVCAR-4 ovarian
PC-3 prostate = system: PC-3 prostate
RXF 393 renal = system: RXF 393 renal
SF-268 CNS = system: SF-268 CNS
SF-539 CNS = system: SF-539 CNS
SK-MEL-2 melanoma = system: SK-MEL-2 melanoma
SK-MEL-28 melanoma = system: SK-MEL-28 melanoma
SK-OV-3 ovarian = system: SK-OV-3 ovarian
SN12C renal = system: SN12C renal
SNB-19 CNS = system: SNB-19 CNS
SR leukemia = system: SR leukemia
SW-620 colon = system: SW-620 colon
T-47D breast = system: T-47D breast
TK-10 renal = system: TK-10 renal
U251 glioblastoma = system: U251 glioblastoma
UACC-257 melanoma = system: UACC-257 melanoma
UACC-62 melanoma = system: UACC-62 melanoma
UO-31 renal = system: UO-31 renal

CC(F)(F)c1cc(F)ccc1-c1sc2cc(O)ccc2c1Oc1ccc(/C=C/C(=O)O)cc1
GI50 (A498 renal): 13.3 µM
TGI (A498 renal): 29.1 µM
GI50 (A549 NSCLC): 13.8 µM
TGI (A549 NSCLC): 31.2 µM
GI50 (ACHN renal): 17 µM
TGI (ACHN renal): 37.8 µM
GI50 (BT-549 breast): 12.8 µM
TGI (BT-549 breast): 26.7 µM
GI50 (COLO 205 colon): 16.5 µM
TGI (COLO 205 colon): 31.7 µM
GI50 (EKVX NSCLC): 16.9 µM
TGI (EKVX NSCLC): 37.9 µM
GI50 (HCC-2998 colon): 18.2 µM
TGI (HCC-2998 colon): 32.3 µM
GI50 (HCT-15 colon): 11.3 µM
TGI (HCT-15 colon): 24 µM
GI50 (HL-60(TB) leukemia): 14.6 µM
TGI (HL-60(TB) leukemia): 27.8 µM
GI50 (HOP-62 NSCLC): 9.88 µM
TGI (HOP-62 NSCLC): 21.8 µM
GI50 (HOP-92 NSCLC): 16.1 µM
TGI (HOP-92 NSCLC): 35.3 µM
GI50 (HS 578T breast): 10.2 µM
TGI (HS 578T breast): 22 µM
GI50 (HT29 colon): 16.2 µM
TGI (HT29 colon): 31.4 µM
GI50 (IGROV1 ovarian): 18.1 µM
TGI (IGROV1 ovarian): 39.3 µM
GI50 (K-562 leukemia): 10.9 µM
TGI (K-562 leukemia): 24.4 µM
GI50 (KM12 colon): 12.7 µM
TGI (KM12 colon): 25.5 µM
GI50 (LOX IMVI melanoma): 13.5 µM
TGI (LOX IMVI melanoma): 26.7 µM
GI50 (M14 melanoma): 11.6 µM
TGI (M14 melanoma): 25.8 µM
TGI (MCF7 breast): 14 µM
GI50 (MDA-MB-231 breast): 15.7 µM
TGI (MDA-MB-231 breast): 29.5 µM
GI50 (MDA-MB-435 melanoma): 3.24 µM
TGI (MDA-MB-435 melanoma): 12.8 µM
GI50 (MDA-MB-468 breast): 11.7 µM
TGI (MDA-MB-468 breast): 26.6 µM
GI50 (MOLT-4 leukemia): 13.3 µM
TGI (MOLT-4 leukemia): 26.1 µM
GI50 (NCI-H226 lung): 20 µM
TGI (NCI-H226 lung): 40.3 µM
GI50 (NCI-H23 lung): 16.3 µM
TGI (NCI-H23 lung): 30.7 µM
GI50 (NCI-H322M lung): 14.4 µM
TGI (NCI-H322M lung): 33.6 µM
GI50 (NCI-H460 NSCLC): 17.6 µM
TGI (NCI-H460 NSCLC): 31.8 µM
GI50 (NCI/ADR-RES ovarian): 16.5 µM
TGI (NCI/ADR-RES ovarian): > 100 µM
GI50 (OVCAR-3 ovarian): 12.6 µM
TGI (OVCAR-3 ovarian): 25.8 µM
GI50 (OVCAR-4 ovarian): 19.5 µM
TGI (OVCAR-4 ovarian): 74.9 µM
GI50 (PC-3 prostate): 13.9 µM
TGI (PC-3 prostate): 28.1 µM
GI50 (RXF 393 renal): 5 µM
TGI (RXF 393 renal): 18.5 µM
GI50 (SF-268 CNS): 16.7 µM
TGI (SF-268 CNS): 37.2 µM
GI50 (SF-539 CNS): 15.8 µM
TGI (SF-539 CNS): 29.8 µM
GI50 (SK-MEL-2 melanoma): 13.6 µM
TGI (SK-MEL-2 melanoma): 28.9 µM
GI50 (SK-MEL-28 melanoma): 11.5 µM
TGI (SK-MEL-28 melanoma): 32.9 µM
GI50 (SK-OV-3 ovarian): 20.2 µM
TGI (SK-OV-3 ovarian): 43.5 µM
GI50 (SN12C renal): 20.1 µM
TGI (SN12C renal): 40.5 µM
GI50 (SNB-19 CNS): 12.7 µM
TGI (SNB-19 CNS): 25.6 µM
GI50 (SR leukemia): 2080 nM
TGI (SR leukemia): 4.33 µM
GI50 (SW-620 colon): 16.9 µM
TGI (SW-620 colon): 30.9 µM
GI50 (T-47D breast): 11.2 µM
TGI (T-47D breast): 25.9 µM
GI50 (TK-10 renal): 22.9 µM
TGI (TK-10 renal): 61.6 µM
GI50 (U251 glioblastoma): 12.6 µM
TGI (U251 glioblastoma): 25.3 µM
GI50 (UACC-257 melanoma): 17 µM
TGI (UACC-257 melanoma): 36.4 µM
GI50 (UACC-62 melanoma): 9.94 µM
TGI (UACC-62 melanoma): 21.6 µM
GI50 (UO-31 renal): 12.4 µM
TGI (UO-31 renal): 26.3 µM
